# “Also recorded” adds a separate entry of the source.
# Assays:
# [1] = tested on: geographic atrophy; assay: Proposed evaluation of geographic atrophy progression in patients versus placebo (safflower oil); assay type: in vivo, human
# Protocol: Based on the above experiment, the following provides a proposed evaluation in reduction in the rate of macular degeneration progression in a cohort of patients treated with deuterated docosahexaenoic acid ethyl ester, as compared to a cohort of test patients treated with placebo. Specifically, the treated cohort is administered 250 mg/day of deuterated docosahexaenoic acid ethyl ester or 250 mg/day of safflower oil. The patients are maintained on this dosing regimen throughout the clinical study. Periodic measurements of further geographic atrophy development are obtained.
# Dosing is continued for 6 or 12, or 18 or 24 months. At that time, the average extent of geographic atrophy progression is measured for each cohort. The efficacy of the treatment protocol is evaluated by comparing the extent of geographic atrophy progression in a treated population against a placebo population. […]
# [2] = tested on: adult male wild-type C57BL/6J mice; assay: Protection against geographic atrophy after intravitreal ferric ammonium citrate in mice fed D-DHA; assay type: in vivo; conditions: for protection against geographic atrophy: intravitreal ferric ammonium citrate
# Text: In this example, two cohorts of adult male wild-type C57BL/6J mice (Jackson Labs) were used. Both cohorts were fed identical feed containing 0.25% or 0.5% D-DHA or matching amounts of DHA as controls. After 4 weeks, the mice were given an intravitreal injection of 1 microliter of 0.5 millimolar ferric ammonium citrate diluted in 0.9% saline (test) or 1 microliter of 0.9% saline (control). Mice were then continued on their respective diets for 4 weeks after injection in order to evaluate whether D-DHA could protect against geographic atrophy which is related to AMD.
# [3] = Predicted steady-state D-DHA substitution and plasma decline without dosing in patients, calculated from Table 2 / FIG. 1; parameters: species or system human; conditions: for D-DHA substitution rate at steady-state (% of total DHA): DHA in human diet 130 mg/day
# Text: In contrast to controlled experimental diets, naturally occurring DHA is consumed by patients treated with D-DHA which can dilute the relative percentage of administered D-DHA absorbed with the total DHA pool and its final concentration at steady state in blood and eventually in the target tissue such as retina. The data and standard curves referred to above allow for the determination of retinal steady-state active D-DHA concentrations with reasonable accuracy by calculating the D-DHA/total DHA ratio in plasma and/or red blood cells. Table 4 exemplifies this by using a mean daily dietary intake of about 130 mg of DHA per day (which represents the 90th percentile of the mean usual DHA intake by males >51 years of age in the US.
# In each case, the first order kinetics evidence that a dose of 250 mg dose of D-DHA will provide for a steady-state ratio of active D-DHA based on the total DHA concentration present, as set forth in Table 4. Extrapolating backwards from the case in Table 4, a dose of at least 130 mg/day of D-DHA should provide a 1:1 ratio of active D-DHA to DHA. That ratio has been shown above to be therapeutic. And a dose of 250 mg of higher should provide a ratio of 1.9:1 or higher which provides a margin for non-compliance as decribed herein above.
# Tables 5, 6, and 7 are based on Table 2 and describe the time it takes for plasma D-DHA levels to fall below 50% or below 20% with 5 different daily doses of D-DHA in (i) patients in the 90th percentile of daily intake consuming up to 130 mg DHA (Table 5), (ii) those in the 95th percentile with a daily intake of up to 180 mg DHA (Table 6), and (iii) an example of a patient consuming more than one meal of oily fish per week with up to 260 mg daily DHA intake.
# [4] = Daily D-DHA Dose 250 mg, Background DHA/Day 130 mg (90th percentile, US males)
# [5] = Daily D-DHA Dose 250 mg, Background DHA/Day 180 mg (95th percentile, US males)
# [6] = Daily D-DHA Dose 250 mg, Background DHA/Day 260 mg (>1 meal of oily fish per week)
# [7] = Daily D-DHA Dose 500 mg, Background DHA/Day 130 mg (90th percentile, US males)
# [8] = Daily D-DHA Dose 500 mg, Background DHA/Day 180 mg (95th percentile, US males)
# [9] = Daily D-DHA Dose 500 mg, Background DHA/Day 260 mg (>1 meal of oily fish per week)
# [10] = Daily D-DHA Dose 750 mg, Background DHA/Day 130 mg (90th percentile, US males)
# [11] = Daily D-DHA Dose 750 mg, Background DHA/Day 180 mg (95th percentile, US males)
# [12] = Daily D-DHA Dose 750 mg, Background DHA/Day 260 mg (>1 meal of oily fish per week)
# [13] = Daily D-DHA Dose 1000 mg, Background DHA/Day 130 mg (90th percentile, US males)
# [14] = Daily D-DHA Dose 1000 mg, Background DHA/Day 180 mg (95th percentile, US males)
# [15] = Daily D-DHA Dose 1000 mg, Background DHA/Day 260 mg (>1 meal of oily fish per week)
# [16] = Daily D-DHA Dose 1250 mg, Background DHA/Day 130 mg (90th percentile, US males)
# [17] = Daily D-DHA Dose 1250 mg, Background DHA/Day 180 mg (95th percentile, US males)
# [18] = Daily D-DHA Dose 1250 mg, Background DHA/Day 260 mg (>1 meal of oily fish per week)
compound,measurement,setting,value
[2H]C([2H])(/C=C\CC)/C=C\C([2H])([2H])/C=C\C([2H])([2H])/C=C\C([2H])([2H])/C=C\C([2H])([2H])/C=C\CCC(=O)OCC [deuterated docosahexaenoic acid ethyl ester],reduction in the rate of disease progression (geographic atrophy progression),"[1]; cohort of patients, 250 mg/day, 6 or 12 or 18 or 24 months, versus placebo (safflower oil)",statistically significant reduction in the rate of disease progression
same,percent reduction in geographic atrophy area [(C/B)×100],"[1]; cohort of treated patients versus placebo cohort, 6, 12, 18 or 24 months post start of therapy",positive percent reduction in geographic atrophy area that is statistically significant
"[2H]C([2H])(/C=C\CC)/C=C\C([2H])([2H])/C=C\C([2H])([2H])/C=C\C([2H])([2H])/C=C\C([2H])([2H])/C=C\CCC(=O)O [D-DHA, D-10-docosahexaenoic acid]",percent reduction in geographic atrophy [(F/E)×100],"[1]; individual patient treated with 1,000 mg of D-DHA versus placebo cohort, 6, 12, 18 or 24 months",positive percent reduction in geographic atrophy that is statistically significant
same,protection against geographic atrophy,"[2]; concentration of D-DHA at least 50% of the total DHA in the retina, feed 0.25% or 0.5% D-DHA",fully protected against geographic atrophy
same,protection against geographic atrophy,[2]; lower concentrations of D-DHA to DHA (below 50% of total DHA in the retina),protection was achieved but at reduced rates
same,protection / reduction in lipid peroxidation,[2]; ratio of about 1:4 of D-DHA to DHA,the protection is accorded; also recorded: sufficient to provide for therapeutic reduction in lipid peroxidation
same,protection / reduction in lipid peroxidation,[2]; ratio of at least about 1:1 D-DHA to DHA,protect is maximal; also recorded: near maximal results are obtained
same,D-DHA Substitution Rate,[3]; [4],~66%
same,D-DHA/DHA Ratio,[3]; [4],1.92 to 1
same,Time to reach 20% in Plasma (0.2:1 D-DHA to DHA Ratio) w/o taking oral D-DHA,[3]; [4],≤ 77 days
same,Time to reach ≤50% in Plasma (1:1 D-DHA to DHA Ratio) w/o taking oral D-DHA,[3]; [4],≤ 22 days
same,D-DHA Substitution Rate,[3]; [5],~58%
same,Days to reach ≤50% in Plasma (1:1 D-DHA to DHA Ratio) w/o taking oral D-DHA,[3]; [5],≤ 11 days
same,Time to reach 20% in Plasma (0.2:1 D-DHA to DHA Ratio) w/o taking oral D-DHA,[3]; [5],≤ 66 days
same,D-DHA Substitution Rate,[3]; [6],~49%
same,Time to reach 20% in Plasma (0.2:1 D-DHA to DHA Ratio) w/o taking oral D-DHA,[3]; [6],≤ 29 days
same,D-DHA Substitution Rate,[3]; [7],~79%
same,Time to reach 20% in Plasma (0.2:1 D-DHA to DHA Ratio) w/o taking oral D-DHA,[3]; [7],≤ 46 days
same,Time to reach ≤50% in Plasma (1:1 D-DHA to DHA Ratio) w/o taking oral D-DHA,[3]; [7],≤ 6 days
same,D-DHA Substitution Rate,[3]; [8],~74%
same,Days to reach ≤50% in Plasma (1:1 D-DHA to DHA Ratio) w/o taking oral D-DHA,[3]; [8],≤ 35 days
same,Time to reach 20% in Plasma (0.2:1 D-DHA to DHA Ratio) w/o taking oral D-DHA,[3]; [8],≤ 90 days
same,D-DHA Substitution Rate,[3]; [9],~66%
same,Days to reach ≤50% in Plasma (1:1 D-DHA to DHA Ratio) w/o taking oral D-DHA,[3]; [9],≤ 8 days
same,Time to reach 20% in Plasma (0.2:1 D-DHA to DHA Ratio) w/o taking oral D-DHA,[3]; [9],≤ 63 days
same,D-DHA Substitution Rate,[3]; [10],~85%
same,Time to reach 20% in Plasma (0.2:1 D-DHA to DHA Ratio) w/o taking oral D-DHA,[3]; [10],≤ 101 days
same,Time to reach ≤50% in Plasma (1:1 D-DHA to DHA Ratio) w/o taking oral D-DHA,[3]; [10],≤ 60 days
same,D-DHA Substitution Rate,[3]; [11],~81%
same,Days to reach ≤50% in Plasma (1:1 D-DHA to DHA Ratio) w/o taking oral D-DHA,[3]; [11],≤ 49 days
same,Time to reach 20% in Plasma (0.2:1 D-DHA to DHA Ratio) w/o taking oral D-DHA,[3]; [11],≤ 104 days
same,D-DHA Substitution Rate,[3]; [12],~74%
same,Days to reach ≤50% in Plasma (1:1 D-DHA to DHA Ratio) w/o taking oral D-DHA,[3]; [12],≤ 26 days
same,Time to reach 20% in Plasma (0.2:1 D-DHA to DHA Ratio) w/o taking oral D-DHA,[3]; [12],≤ 81 days
same,D-DHA Substitution Rate,[3]; [13],~88%
same,Time to reach 20% in Plasma (0.2:1 D-DHA to DHA Ratio) w/o taking oral D-DHA,[3]; [13],≤ 125 days
same,Time to reach ≤50% in Plasma (1:1 D-DHA to DHA Ratio) w/o taking oral D-DHA,[3]; [13],≤ 70 days
same,D-DHA Substitution Rate,[3]; [14],~85%
same,Days to reach ≤50% in Plasma (1:1 D-DHA to DHA Ratio) w/o taking oral D-DHA,[3]; [14],≤ 59 days
same,Time to reach 20% in Plasma (0.2:1 D-DHA to DHA Ratio) w/o taking oral D-DHA,[3]; [14],≤ 114 days
same,D-DHA Substitution Rate,[3]; [15],~79%
same,Days to reach ≤50% in Plasma (1:1 D-DHA to DHA Ratio) w/o taking oral D-DHA,[3]; [15],≤ 38 days
same,Time to reach 20% in Plasma (0.2:1 D-DHA to DHA Ratio) w/o taking oral D-DHA,[3]; [15],≤ 93 days
same,D-DHA Substitution Rate,[3]; [16],~91%
same,Time to reach 20% in Plasma (0.2:1 D-DHA to DHA Ratio) w/o taking oral D-DHA,[3]; [16],≤ 132 days
same,Time to reach ≤50% in Plasma (1:1 D-DHA to DHA Ratio) w/o taking oral D-DHA,[3]; [16],≤ 77 days
same,D-DHA Substitution Rate,[3]; [17],~87%
same,Days to reach ≤50% in Plasma (1:1 D-DHA to DHA Ratio) w/o taking oral D-DHA,[3]; [17],≤ 67 days
same,Time to reach 20% in Plasma (0.2:1 D-DHA to DHA Ratio) w/o taking oral D-DHA,[3]; [17],≤ 121 days
same,D-DHA Substitution Rate,[3]; [18],~83%
same,Days to reach ≤50% in Plasma (1:1 D-DHA to DHA Ratio) w/o taking oral D-DHA,[3]; [18],≤ 47 days
same,Time to reach 20% in Plasma (0.2:1 D-DHA to DHA Ratio) w/o taking oral D-DHA,[3]; [18],≤ 102 days
same,D-DHA substitution rate at steady-state (% of total DHA),[3]; Fixed daily D-DHA dose 250 mg,66%
same,D-DHA substitution rate at steady-state (% of total DHA),[3]; Fixed daily D-DHA dose 500 mg,79%
same,D-DHA substitution rate at steady-state (% of total DHA),[3]; Fixed daily D-DHA dose 1000 mg,88%
same,time to reach steady state concentrations of active D-DHA after start of therapy,"[3]; plasma, patient",about 14 days
same,time to reach steady state concentrations of active D-DHA after start of therapy,"[3]; red blood cell, patient",about 45 days
same,time to reach steady state concentration of active D-DHA after start of therapy,"[3]; skeletal muscle tissue, patient",about 11 weeks

# — patent publication US20250241884A1, “Pharmaceutical Compositions of D10-Docosahexaenoic Acid or Esters Thereof” (BioJiva LLC, priority 2022, published 2025)
